Laboratory results: patent US11840686B2, “Modulation of prekallikrein (PKK) expression” (Ionis Pharmaceuticals, Inc., priority 2013, dated 2023)
Strand notation (5' to 3'): a small letter for the sugar, then the base; units joined by * are phosphorothioate-linked, units joined directly phosphodiester-linked; [ ] holds rarer units or linkages, { } end groups; capitals alone tell only the bases. e = 2'-O-(2-methoxyethyl) (MOE); k = constrained ethyl (cEt); [5mC] = 5-methylcytosine; d = 2'-deoxy (DNA)

What was measured:
human PKK mRNA [1] = experiment: Antisense inhibition of human PKK mRNA in HepaRG cells, 1,000 nM, MOE/deoxy/cEt oligonucleotides (Example 3); format: cell-based
How it was run: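 Readout is percent PKK mRNA reduction against untreated controls, by real-time PCR (RTS3454) adjusted for total RNA via RIBOGREEN. Oligonucleotides, phosphorothioate gapmers of 16 nucleosides with cEt, MOE and deoxy sugars, were delivered at 1,000 nM by electroporation to 20,000 HepaRG cells/well for roughly 24 h.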

human PKK mRNA [2] = experiment: Dose-dependent antisense inhibition of human PKK in HepaRG cells, 0.11-3.00 uM (Example 6); format: cell-based; conditions: for IC50: 0.11-3.00 μM; for percent inhibition of PKK mRNA, 0.11 μM / percent inhibition of PKK mRNA, 0.33 μM / percent inhibition of PKK mRNA, 1.00 μM / percent inhibition of PKK mRNA, 3.00 μM: electroporation, approx. 16 hours, relative to untreated control cells
How it was run: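 Antisense oligonucleotides were tested over 0.11–3.00 μM, delivered by electroporation, with readout after roughly 16 h. Human PKK transcript was measured by real-time PCR (set RTS3454) and adjusted to RIBOGREEN total RNA, giving half-maximal inhibitory concentrations.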

[3] = HepaRG cells, electroporation with 1,000 nM antisense oligonucleotide, approx. 24 hours, PKK mRNA by RT-PCR (RTS3454), relative to untreated control cells, Table 25 experiment
[4] = HepaRG cells, electroporation with 1,000 nM antisense oligonucleotide, approximately 24 hours, primer probe set RTS3454, relative to untreated control cells, experiment of Table 24
[5] = Table 22 experiment, HepaRG cells, electroporation with 1,000 nM antisense oligonucleotide, approx. 24 hours, PKK mRNA by RT-PCR (RTS3454), relative to untreated control cells
[6] = HepaRG cells, 1,000 nM antisense oligonucleotide, Table 29

| Substance | % inhibition (human PKK mRNA [1]; [3]) [%] | IC50 (human PKK mRNA [2]) [nM] | percent inhibition of PKK mRNA, 0.11 μM (human PKK mRNA [2]) [%] | percent inhibition of PKK mRNA, 0.33 μM (human PKK mRNA [2]) [%] | percent inhibition of PKK mRNA, 1.00 μM (human PKK mRNA [2]) [%] | percent inhibition of PKK mRNA, 3.00 μM (human PKK mRNA [2]) [%] | % inhibition (human PKK mRNA [1]; PKK mRNA, HepaRG cells, 1,000 nM antisense oligonucleotide, Table 31) [%] | % inhibition (human PKK mRNA [1]; [4]) [%] | % inhibition (human PKK mRNA [1]; Table 21 experiment, HepaRG cells, electroporation with 1,000 nM antisense oligonucleotide, approx. 24 hours, PKK mRNA by RT-PCR (RTS3454), relative to untreated control cells) [%] | % inhibition (human PKK mRNA [1]; [5]) [%] | % inhibition (human PKK mRNA [1]; [6]) [%] | % inhibition (human PKK mRNA [1]; HepaRG cells, electroporation with 1,000 nM antisense oligonucleotide, approximately 24 hours, primer probe set RTS3454, relative to untreated control cells, experiment of Table 23) [%] | % inhibition (human PKK mRNA [1]; Table 27, HepaRG cells, 1,000 nM antisense oligonucleotide, human PKK mRNA) [%] | % inhibition (human PKK mRNA [1]; Table 30, human PKK mRNA, HepaRG cells, 1,000 nM antisense oligonucleotide) [%] | % inhibition (human PKK mRNA [1]; Table 20, HepaRG cells, electroporation with 1,000 nM antisense oligonucleotide, approximately 24 hours, PKK mRNA by RT-PCR (RTS3454), relative to untreated control cells) [%] |
| --- | --- | --- | --- | --- | --- | --- | --- | --- | --- | --- | --- | --- | --- | --- | --- |
| 548170 (eA*eG*kT*dT*dG*d[5mC]*dG*dA*d[5mC]*d[5mC]*dT*d[5mC]*dG*k[5mC]*kA*eT; antisense) [compound 548170] | 68 | 2000 | 0 | 8 | 26 | 65 |  |  |  |  |  |  |  |  |  |
| 548655 (antisense e[5mC]*e[5mC]*k[5mC]*dG*dA*dG*dG*dT*d[5mC]*dA*d[5mC]*dA*dT*kA*kA*eT) [compound 548655] |  | > 3000 | 0 | 0 | 8 | 33 | 56 |  |  |  |  |  |  |  |  |
| 548046 (eT*eA*kT*d[5mC]*dA*dT*dG*dA*dT*dT*d[5mC]*d[5mC]*d[5mC]*kT*kT*e[5mC]; antisense) [compound 548046] |  | 700 | 7 | 35 | 64 | 77 |  | 84 |  |  |  |  |  |  |  |
| 548055 (eG*eT*kA*dA*dT*dT*d[5mC]*dA*dA*dA*dG*dG*dA*kG*k[5mC]*e[5mC]; antisense) [compound 548055] |  | 300 | 43 | 57 | 50 | 88 |  | 78 |  |  |  |  |  |  |  |
| 547807 (eG*e[5mC]*kA*dG*dT*dA*dT*dT*dG*dG*dG*d[5mC]*dA*kT*kT*eT; antisense) [compound 547807] |  | 400 | 26 | 71 | 61 | 94 |  |  | 75 |  |  |  |  |  |  |
| 547857 (antisense e[5mC]*eT*k[5mC]*dA*dT*dA*dT*d[5mC]*dA*dA*d[5mC]*dT*d[5mC]*k[5mC]*kT*eT) [compound 547857] |  | 200 | 36 | 66 | 77 | 93 |  |  |  | 84 |  |  |  |  |  |
| 548583 (eG*eG*kG*dA*dA*dT*dT*dT*dA*dT*dG*d[5mC]*dT*kG*k[5mC]*e[5mC]; antisense) [compound 548583] |  | 200 | 43 | 46 | 93 | 88 |  |  |  |  | 79 |  |  |  |  |
| 548195 (eT*eT*k[5mC]*dT*dG*d[5mC]*d[5mC]*dA*dA*d[5mC]*dA*dG*dT*kT*kT*e[5mC]; antisense) [compound 548195] | 84 | 800 | 5 | 23 | 61 | 76 |  |  |  |  |  |  |  |  |  |
| 547943 (eT*eG*kG*dT*dG*dT*dG*d[5mC]*d[5mC]*dA*d[5mC]*dT*dT*kT*k[5mC]*eA; antisense) [compound 547943] |  | 200 | 33 | 70 | 87 | 90 |  |  |  |  |  | 83 |  |  |  |
| 548343 (antisense eT*eA*kG*dT*dG*dA*dT*dA*dA*dG*dA*dG*d[5mC]*kT*kG*eG) [compound 548343] |  |  | 61 | 67 | 88 | 92 |  |  |  |  |  |  | 78 |  |  |
| 548024 (eG*e[5mC]*kT*dG*dT*d[5mC]*dA*dG*d[5mC]*dT*dT*d[5mC]*dA*k[5mC]*k[5mC]*eT; antisense) [compound 548024] |  | 300 | 28 | 57 | 84 | 82 |  | 79 |  |  |  |  |  |  |  |
| 548558 (antisense eA*eA*k[5mC]*dA*dT*dT*dG*dT*dG*dT*dA*dG*d[5mC]*kT*kG*e[5mC]) [compound 548558] |  |  | 53 | 61 | 78 | 95 |  |  |  |  | 75 |  |  |  |  |
| 548547 (antisense eG*eT*kG*d[5mC]*dG*dA*dT*dT*dA*dA*dG*d[5mC]*d[5mC]*k[5mC]*k[5mC]*eA) [compound 548547] |  | 400 | 30 | 41 | 76 | 90 |  |  |  |  | 86 |  |  |  |  |
| 548410 (antisense eA*eG*kT*dA*dT*d[5mC]*dA*d[5mC]*dT*dG*dT*dA*d[5mC]*kT*kA*eG) [compound 548410] |  | 200 | 31 | 58 | 85 | 82 |  |  |  |  |  |  |  | 85 |  |
| 548010 (eA*eG*kT*dG*dT*dT*dA*d[5mC]*dA*d[5mC]*dA*dA*dT*k[5mC]*kT*e[5mC]; antisense) [compound 548010] |  | 1400 | 0 | 11 | 49 | 64 |  | 80 |  |  |  |  |  |  |  |
| 547870 (antisense e[5mC]*eT*kA*dA*d[5mC]*d[5mC]*dT*dT*dA*dG*dA*d[5mC]*dA*k[5mC]*kA*eT) [compound 547870] |  | 600 | 0 | 44 | 80 | 97 |  |  |  | 83 |  |  |  |  | 89 |
